Assay [1] addresses T1, isocitrate dehydrogenase (Sus scrofa, UniProt P33198).
T1 construct: purchased Sigma, St. Louis, Mo; ICD Type VI
T1 sequence (P33198 9-421): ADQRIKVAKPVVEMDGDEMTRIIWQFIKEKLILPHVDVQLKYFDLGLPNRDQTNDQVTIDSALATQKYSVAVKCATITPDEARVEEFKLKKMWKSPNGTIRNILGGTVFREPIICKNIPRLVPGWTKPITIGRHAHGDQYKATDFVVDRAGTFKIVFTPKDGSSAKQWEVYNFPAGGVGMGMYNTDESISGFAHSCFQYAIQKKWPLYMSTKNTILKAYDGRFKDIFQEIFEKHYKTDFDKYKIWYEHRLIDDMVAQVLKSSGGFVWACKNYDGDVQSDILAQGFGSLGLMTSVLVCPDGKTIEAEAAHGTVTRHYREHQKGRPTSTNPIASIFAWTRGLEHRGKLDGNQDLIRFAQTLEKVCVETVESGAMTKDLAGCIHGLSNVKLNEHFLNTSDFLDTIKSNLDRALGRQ
Briefly: Amperometric lead inhibition of ICDH in homogeneous aqueous solution (Example 1). It is filed as biochemical, pig. As to conditions: pH 8.5 Tris; for Current: 0 V. The procedure: Pig heart NADP-linked isocitric dehydrogenase (ICD, EC 1.1.1.42), an oxidoreductase, is sensitive to trace levels of lead ion as low as 1 μg/dl. […] In fact, at low concentrations of activator, e.g., <200 ppb Mn^++, the activity of ICD is proportional to Mn^++ and may be used to determine activator concentration (Guilbault, 1970). Inactivation by inhibitors is useful for determining inhibitor concentration. Specificity of enzymes for activators, or inhibitors, is not as great as for the natural substrate of the enzyme, but in some cases inhibitor concentration may be selectively determined. Silver and mercury have been determined in the presence of each other using isocitrate dehydrogenase (Mealor and Townshend, 1968). However, until now, there has been no satisfactory rapid amperometric method to determine lead ion based on ICD inhibition, much less a simple method to determine low lead ion concentrations in whole blood.
The following example illustrates determination of trace amounts of lead ion in aqueous medium through the inhibition of isocitrate dehydrogenase (ICDH) in homogeneous solution.
Commercially available ICDH (Sigma Chemical Company, St. Louis, Mo.) typically contains considerable amounts of sulfate that interferes with lead ion inhibition of ICDH. Dialysis of ICDH against low ionic strength phosphate buffer caused loss of its activity, which was restored by addition of Mn^2+.
A glassy carbon rod of 3 mm diameter was wrapped in teflon tubing as working electrode and surrounded with a layer of Pt foil as the counter electrode with a silver wire placed in between as the reference electrode. At least one layer of teflon was inserted between two of the three electrodes. All three electrode surfaces were on the same plane. Tubing was fixed on the top of the coplanar electrode surface with an O-ring, forming a microcell of 100-200 μl in volume.
To the microcell was added in sequence: 100 μl 50 mM pH 8.5 Tris buffer, ca. 0.3-0.4 units ICDH and, after 15 min, 5 μl 25 mM NMP-MS, 5 μl 60 mM NADP. The background current was measured at 0 V. 10 μl of 0.5M isocitrate was added and the current measured again. The difference in the two signals was taken as due to the oxidation of isocitrate catalyzed by ICDH.
To measure lead inhibition of ICDH, lead ion was added to the above solution after addition of ICDH but 15 min prior to the addition of NMP-MS and NADP. The current difference with isocitrate was due to inhibition of ICDH by the added lead. FIG. 3 indicates the sensitivity of the electrode to lead ion concentrations in the submicromolar range.

Assay [2] has as its target T1, isocitrate dehydrogenase. Briefly: ICDH inhibition by lead in the presence of EDTA with or without CoSO4 (Example 8). Conditions: 2 mM EDTA; for Inhibition: 2.5 mM CoSO4. It is filed as biochemical, pig. The text has this: A major problem in the measurement of lead in blood is the interference by various blood proteins and, as in the majority of clinical samples, the presence of excess amounts of EDTA. The inventors have discovered that lead chelated with EDTA is exchangeable with cobalt(II). As shown in this example, lead Pb(II) is displaced from EDTA by cobalt(II) and detected by its inhibition of isocitrate dehydrogenase (ICDH).
Micromolor concentrations of lead were detected by ICDH inhibition in the presence of 2 mM EDTA and 2.5 mM CoSO4.

For assay [3], the target named is T1, isocitrate dehydrogenase. As to the kind of experiment: Effect of temperature on lead inhibition of isocitrate dehydrogenase (Example 9). As to conditions: for Inhibition rate: 4 μM lead, 10 nM enzyme, 15 min; for inhibition rates: lead concentration not printed at this place. The format is biochemical, pig. The procedure:
The activity of isocitrate dehydrogenase and its response is affected by several factors.
A solution of isocitrate dehydrogenase (10 nM) was incubated for 15 min at various temperatures between 18° C. and 37° C. and rate of lead inhibition measured. Inhibition rates increased approximately linearly from about 25% to 85% at a lead concentration of 4 μM (FIG. 5).

The next assay deals with Horseradish peroxidase. As to conditions: Guilbault, et al., 1968; cited from earlier work.

Usually % inhibition stands for the change of the read-out against control, counted positive when it falls. The low end stands for little suppression, the high end for strong suppression. The term Inhibition denotes the change of the read-out against control, counted positive when it falls. With `[Pb+2]` [lead ion], the “% inhibition” value on isocitrate dehydrogenase [1] (1.89 μM Pb++) is listed as 85.3%; at isocitrate dehydrogenase [1] (90.9 μM Pb++), 98.2%. In addition, the values for the Current on isocitrate dehydrogenase [1] (1.89 μM Pb++) and on isocitrate dehydrogenase [1] (90.9 μM Pb++) were 218 nA and 26 nA, respectively. Besides, the Inhibition was 23% at isocitrate dehydrogenase [2] (12 μM lead), 32% at isocitrate dehydrogenase [2] (36 μM lead) and 47% on isocitrate dehydrogenase [2] (121 μM lead). Besides, the “Inhibition (in words)” value at isocitrate dehydrogenase [2] (absence of CoSO4) was “no inhibition was observed”. In addition, the Inhibition rate entry at isocitrate dehydrogenase [3] (18° C.) is recorded as “about 25%”; on isocitrate dehydrogenase [3] (37° C.) it was about 85%. The results for the inhibition rates at isocitrate dehydrogenase [3] (18° C.) and at isocitrate dehydrogenase [3] (37° C.) were 25% and “about 85%”, respectively. The “linear range of peroxidase inhibition” value in the assay on Horseradish peroxidase is 10 to 185 µg/mL.

Values taken from US5368707A, “Convenient determination of trace lead in whole blood and other fluids” (priority 1993, dated 1994).
